Laboratory results taken from patent US5770625A, “Butyryl-tyrosinyl spermine, analogs thereof and methods of preparing and using same” (priority 1994, dated 1998).
“Also recorded” adds a separate entry of the source. Where two headings read alike, the source gives them in different places.

System: postsynaptic QUIS-R of locust leg muscle
Test: Antagonism of neurally-evoked twitch contraction of locust retractor unguis nerve-muscle preparation
Design: species or system Schistocerca gregaria
Conditions: for IC50: read-out: IC50
From the text: Electrophysiological studies. The metathoracic retractor unguis nerve-muscle preparation of the locust Schistocerca gregaria was dissected and mounted in a small Perspex bath as described previously (21). The pharmacological activity on the locust nerve muscle preparation, using reduction in neurally evoked twitch amplitude as the measure of activity. Ten fractions were pharmacologically active. […] Further purification of this fraction by reverse-phase HPLC gave four peaks (FIG. 2B), the most pharmacologically was in the major peak (hatched FIG. 2B) . This fraction gave 1.1 mg of toxin as amorphous powder.
The retractor unguis muscle and its nerve were dissected from the metathoracic legs of adult, female locusts (Schistocerca gregaria) and mounted in a Perspex perfusion chamber as described by Usherwood and Machili (21) and Bateman, et al. (14). The muscle was stretched to maximal body length and attached at its tendon or apodeme to a Grass FT 10-strain gauge by a short length of nylon thread. The volume of the muscle bath was about 0.5 ml and its contents could be exchanged within 1 sec. The preparation was perfused continuously at the rate of 5-10 ml min^-1 (except during the application of toxin (see below)) with standard locust saline of the following composition (mM): NaCl, 180; KCl, 10; CaCl2, 2; Hepes, 10; buffered to pH 6.8. The retractor unguis muscle is innervated by two excitatory motoneurons (30) and an inhibitory motoneuron (19,32), but the influence of the latter on the responsiveness of the muscle is slight. Maximal stimulation of the retractor unguis nerve at 0.2 Hz produced a series of twitch contractions of constant amplitude, which were maintained for many hours in good preparations. The test compounds were kept at -20° C. They were dissolved in locust saline on the day of the assay and tested at room temperature. The compounds were applied by pipette to a nerve-muscle preparation such that the contents of the perfusion bath were completely replaced by the test solution. Exposure to the test compound lasted 20 min. Because of the limited availability of some of the compounds, the preparation was not perfused during this period. However, the amplitude of the retractor unguis muscle twitch rarely changed by more than 5-10% over a 20 minute period. During application of the test solutions the stimulation frequency was raised to 0.6 Hz for brief periods to test for stimulus frequency-dependent effects on twitch amplitude (31,37). Dose-inhibition data were obtained by testing the effects, on single retractor unguis muscle preparations, of a range of concentrations of the test compounds. Each concentration of the respective samples was tested at least thee times, and each compound was assayed usually over a 100-fold concentration range (a total of 7-10 concentrations). The standard deviations for twitch inhibition for any given concentration of a toxin rarely exceed 10%. Those compounds for which the deviation was greater than this are identified in Tables 1-7. There was some variation in the potency of PhTX-343 and the test compounds between nerve-muscle preparations. In order to compensate for this, the following procedure was adopted: PhTX-343 was assayed at a variety of concentrations on eight retractor unguis nerve-muscle preparations to give a cumulative dose-inhibition relationship for this toxin. The concentration of PhTX-343 which reduced the twitch contraction by 50% (IC50) was then determined by fitting a curve to the data using the following equation: [formula] where: [T]= toxin concentration, I= % inhibition, Imax =maximum inhibition= 100% and n' represents the Hill slope coefficient. […] The ratio of the actual reduction in twitch amplitude obtained with this single concentration of PhTX-343 and the 50% reduction that was anticipated from the cumulative dose-inhibition relationship for this toxin, was then used as a factor to normalize the data for the test compound. […]

[1] = Table 5, modifications to more than one region
[2] = Table 4, terminal amino group modifications, * SD < 20%
[3] = Table 4, relative to PhTX-343 = 1.0
[4] = Table 2, region B modifications, * SD < 20%
[5] = Table 2, relative to PhTX-343 = 1.0
[6] = Table 6, bis analogues of PhTX-343
[7] = Table 1, region A modifications, 20 min exposure, normalized with PhTX-343, ** SD < 30%
[8] = Table 1, relative to PhTX-343 = 1.0
[9] = Table 3, region C modifications
[10] = Table 3, relative to PhTX-343 = 1.0
[11] = Table 7, mono-acyl spermine analogues

`CCCC(=O)N[C@@H](Cc1ccc(O)cc1)C(=O)NCCCNCCCCNCCCNC(=O)C(N)CCCCNC(=O)C(N)CCCCN` (stereo partly drawn) [Compound 37] was tested, and the “potency compared with PhTX-343 or other analogues (in words)” value was “more active than compound 35”.
With `CCCC(=O)N[C@@H](Cc1cc(I)c(O)c(I)c1)C(=O)NCCCNCCCCNCCCNC(=O)[C@@H](N)CCCCN` [drawing 65] the IC50 [1] was 1.7 µM and the “Relative Potency” value (Table 5, relative to PhTX-343) was 14.
`CCCC(=O)N[C@@H](Cc1ccc(O)cc1)C(=O)NCCCNCCCCNCCCNC(=O)[C@@H](N)CCCNC(=N)N` [drawing 62] was tested, and the IC50 [2] was 6.3 µM and the “Relative Potency” value [3] was 3.7.
`CCCC(=O)N[C@@H](Cc1ccc(O)cc1)C(=O)NCCCNCCCCNCCCN` [drawing 31] was tested, and the IC50 [4] was 23 µM and the “Relative Potency” value [5] was 1.0.
For `O=C(N[C@@H](Cc1ccc(O)cc1)C(=O)NCCCNCCCCNCCCNC(=O)[C@H](Cc1ccc(O)cc1)NC(=O)c1ccccc1)c1ccccc1`, the IC50 [6] was 110 µM and the “Relative Potency” value (Table 6, relative to PhTX-343) was 0.2.
In the case of `CCCC(=O)N[C@@H](Cc1ccc(O)cc1)C(=O)NCCCCNCCCNCCCN` [drawing 22], the IC50 [7] is reported as 18 µM and the “Relative Potency” value [8] is reported as 1.3.
In the case of `CC(=O)N[C@@H](Cc1ccc(O)cc1)C(=O)NCCCNCCCCNCCCN` [drawing 42], the IC50 [9] is reported as 50 µM and the “Relative Potency” value [10] is reported as 0.7.
With `CCCC(=O)N[C@@H](Cc1ccc(O)cc1)C(=O)NCCCCNCCCN` [Compound 4, PhTX-43] the “potency compared with PhTX-343 or other analogues (in words)” value was “reduced potency”.
For `CCCC(=O)N[C@@H](Cc1ccc(O)cc1)C(=O)NCCCNCCCCNCCCNC(=O)CCCN` [Compound 34], the “potency compared with PhTX-343 or other analogues (in words)” value was “potency was reduced”.
In the case of `NCCCNCCCCNCCCNC(=O)[C@H](Cc1ccc(O)cc1)NC(=O)Cc1ccccc1` [drawing 48], the IC50 [9] is reported as 12 µM and the “Relative Potency” value [10] is reported as 0.5.
In the case of `CCCC(=O)N[C@@H](C)C(=O)NCCCNCCCCNCCCN` [Compound 15], the “potency compared with PhTX-343 or other analogues (in words)” value is reported as “slightly reduced”.
For `CCCC(=O)NCC(=O)NCCCNCCCCNCCCN` [Compound 16, N-butyryl-L-glycine-spermine-amide], the “potency compared with PhTX-343 or other analogues (in words)” value was “greatly reduced activity”.
With `CCCCC(CNCCCN)CNCCCCNC(=O)[C@H](Cc1ccc(O)cc1)NC(=O)CCC` (stereo partly drawn) [drawing 28] the IC50 [7] was 4 µM and the “Relative Potency” value [8] was 5.6.
With `NCCCNCCCCNCCCNC(=O)[C@H](Cc1ccc(O)cc1)NC(=O)c1ccccc1` [Compound 23] the “potency compared with PhTX-343 or other analogues (in words)” value was “equipotent with the C10 analogue 20”.
In the case of `CCCC(=O)N[C@@H](Cc1ccc(O)cc1)C(=O)NCCCNCCCCNCCCNC(=O)CCCN` [drawing 60], the IC50 [2] is reported as 68 µM and the “Relative Potency” value [3] is reported as 0.3.
`CCCC(=O)N[C@@H](Cc1ccc(OCc2ccccc2)cc1)C(=O)NCCCNCCCCNCCCN` [drawing 34] was tested, and the IC50 [4] was 24 µM and the “Relative Potency” value [5] was 1.0.
`CCCC(=O)N[C@@H](Cc1cc(I)c(O)c(I)c1)C(=O)NCCCNCCCCNCCCNC(=O)[C@@H](N)CCCNC(=N)N` [Compound 39, diiodo-PhTX-arginine] was tested, and the “potency compared with PhTX-343 or other analogues (in words)” value was “more potent than PhTX-343”.
`CC(=O)N[C@@H](Cc1ccc(O)cc1)C(=O)NCCCNCCCCNCCCN` [Compound 18] was tested, and the “potency compared with PhTX-343 or other analogues (in words)” value was “slight but significant reduction in potency”.
In the case of `CCCCCCC(=O)N[C@@H](Cc1ccc(O)cc1)C(=O)NCCCNCCCCNCCCNC(=O)[C@H](Cc1ccc(O)cc1)NC(=O)CCCCCC`, the “IC50 (M)” value [6] is reported as “insol”.
`CCCC(=O)N[C@@H](Cc1ccc(O)cc1)C(=O)NCCCNCCCCNCCCNC(C)=O` [Compound 32] was tested, and the “potency compared with PhTX-343 or other analogues (in words)” value was “low potency”.
With `[N-]=[N+]=Nc1ccc(C(=O)N[C@@H](Cc2ccc(O)cc2)C(=O)NCCCNCCCCNCCCNC(=O)[C@@H](N)CCCCN)cc1` [Compound 40, N-(p-azidobenzamide)-L-tyrosyl-spermine-L-lysine-triamide] the IC50 [1] was 3.3 µM and the “Relative Potency” value (Table 5, relative to PhTX-343) was 7.
`NCCCNCCCCNCCCNC(=O)[C@H](Cc1ccc(O)cc1)NC(=O)C1CCCCC1` [drawing 46] was tested, and the IC50 [9] was 9.3 µM and the “Relative Potency” value [10] was 2.5.
With `CCCC(=O)N[C@@H](Cc1ccc(O)cc1)C(=O)NCCCCNCC(C)CNCCCN` (stereo partly drawn) [Compound 7] the “potency compared with PhTX-343 or other analogues (in words)” value was “did not greatly alter potency”.
`CCCC(=O)N[C@@H](Cc1ccc(O)cc1)C(=O)NCCCNCCCCNCCCN` [drawing 21] was tested, and the IC50 [7] was 23 µM and the “Relative Potency” value [8] was 1.0.
In the case of `CCCCCCCCCC(=O)NCCCNCCCCNCCCN` [drawing 78], the IC50 [11] is reported as 10 µM and the “Relative Potency” value (Table 7, mono-acyl spermine analogues, relative to PhTX-343) is reported as 2.3.
`CCCCCCCCCC(=O)NCCCNCCCCNCCCNC(=O)CCCCCCCCC` [Compound 52, bis-C10 -spermine] was tested, and the “potency compared with PhTX-343 or other analogues (in words)” value was “as active as PhTX-343; also recorded: relatively high potencies”.
With `CCCC(=O)N[C@@H](Cc1ccc(O)cc1)C(=O)NCCCCNCC(C)CNCCCN` (stereo partly drawn) [drawing 27] the IC50 [7] was 40 µM and the “Relative Potency” value [8] was 0.6.
With `CCCC(=O)N[C@@H](Cc1ccc(O)cc1)C(=O)NCCCNCCCCNCCCN` [drawing 41] the IC50 [9] was 23 µM and the “Relative Potency” value [10] was 1.0.
`CCCC(=O)N[C@@H](Cc1cc(I)c(O)c(I)c1)C(=O)NCCCNCCCCNCCCN` [drawing 35] was tested, and the IC50 [4] was 5.3 µM and the “Relative Potency” value [5] was 4.4.
In the case of `CCCC(=O)N[C@@H](Cc1ccc(O)cc1)C(=O)NCCC[N+](C)(C)CCCC[N+](C)(C)CCC[N+](C)(C)C` [drawing 29], the IC50 [7] is reported as 130 µM and the “Relative Potency” value [8] is reported as 0.2.
For `CCCCCCC(=O)N[C@@H](Cc1ccc(O)cc1)C(=O)NCCCNCCCCNCCCN` [drawing 43], the IC50 [9] was 10 µM and the “Relative Potency” value [10] was 2.7.
With `CCCC(=O)NCCCNCCCCNCCCN` the “IC50 (M)” value [11] was “agonist”.
`CCCC(=O)N[C@@H](Cc1ccccc1)C(=O)NCCCNCCCCNCCCN` [Compound 10] was tested, and the “potency compared with PhTX-343 or other analogues (in words)” value was “increased potency about three-fold”, the IC50 [4] was 6.7 µM and the “Relative Potency” value [5] was 3.4.
For `NCCCNCCCCNCCCNC(=O)[C@H](Cc1ccc(O)cc1)NC(=O)CCCCCNC(=O)CCCCC1SCC2NC(=O)NC21` (stereo partly drawn), the “IC50 (M)” value [9] was “insol”.
`CCCC(=O)N[C@@H](Cc1ccc(O)cc1)C(=O)NCCCNCCCCNCCCNC(=O)[C@@H](N)CCCNC(=N)N` [Compound 36, PhTX-343-L-arginine-amide] was tested, and the “potency compared with PhTX-343 or other analogues (in words)” value was “increased potency”.
`CCCCCCCCCC(=O)N[C@@H](Cc1ccc(O)cc1)C(=O)NCCCNCCCCNCCCN` [Compound 20, C10-PhTX-343] was tested, and the “potency compared with PhTX-343 or other analogues (in words)” value was “successive increases in potency”, the IC50 [9] was 1.4 µM and the “Relative Potency” value [10] was 16.0.
For `CCCC(=O)N[C@@H](Cc1ccc(OCc2ccccc2)cc1)C(=O)NCCCNCCCCNCCCN` [Compound 12, N-butyryl-O-benzyl-L-tyrosine-spermineamide], the “potency compared with PhTX-343 or other analogues (in words)” value was “unchanged potencies”.
